Assay results published in publication PMC10364322, “Evaluation of chronic drug-induced electrophysiological and cytotoxic effects using human-induced pluripotent stem cell-derived cardiomyocytes (hiPSC-CMs)” (Frontiers in Pharmacology, 2023).
Read-outs that look alike come from different tables or passages of the source.

What was measured:
[1] = test system: hiPSC-CMs (iCell-Cardiomyocytes^2); assay: MEA impedance (cytotoxicity readout) in hiPSC-CMs
Protocol: (§1) Cells were seeded according to the instructions of the cell provider, in fibronectin-coated 48-well MEA plates (Axion Cytoview Plates, M768-tMEA-48B) at a density suited to form a monolayer (i.e., 50 K/well) and maintained in culture in a stage incubator (37°C, 5% CO2).
(§2) At least 4 h before the beginning of the baseline measurements, a full medium exchange was performed (to a final volume of 400 µL per well). Neat compounds were dissolved in 100% DMSO at a stock concentration 1000-fold the highest target concentration. […] Afterwards, these stock solutions were diluted with Maintenance medium (CDi), to 10-fold the intended concentration. The final DMSO concentration in test solutions and vehicle control was 0.1%.
(§3) Spontaneous electrical activity was recorded in hiPSC-CMs monolayers as field potentials using the Maestro Pro MEA instrument (Axion Biosystems, Atlanta, GA, United States), which allows the maintenance of accurate temperature and CO2 levels (37°C, 5% CO2). After the plate was placed in the Maestro Pro and allowed to equilibrate for about 10 min, baseline acquisition of field potential and impedance signals was initiated and lasted for 5 min each. […] As impedance measures resistance of an applied alternating current through the hiPSC-CMs monolayer, a reduction in the attachment of hiPSC-CMs to the bottom of the well due to cell death or changes in the monolayer morphology, causes a drop in the impedance signal.
(§4) After the acquisition of all timepoint measurements, raw data were loaded into the data analysis software Axion Cardiac Analysis Tool (V.3.2.3). […] A.csv file containing information on the FP parameters per well, per time point, was then generated and used as input to the in-house data management system (SPEcII v.3.4, Unlimit-IT, Geel, Belgium), where descriptive statistics were calculated. Summary values at different time points after compound addition are expressed as percent change from baseline and shown as mean ± standard deviation (SD).
(§5) The nonparametric Wilcoxon-Mann Whitney Test was used to compare the percent change from the baseline (Δ%) value between the group treated with the compound at a given concentration and the group treated with the DMSO at each matching time points. A two-sided test at 5% significance level was considered. […] To assess the physiological relevance of changes, a tolerance interval of DMSO experiments was calculated at each time point, for each parameter. […] TIs indicate an interval where, with a certain confidence level (1- α = 0.95), a specified proportion (p = 0.80) of percent change for DMSO data falls. The lower and upper limits based on the TI values were used as cut-offs for the interpretation of the changes. For the cytotoxicity assays, measurements of fluorescence (after background fluorescence subtraction) from wells treated with the compounds were normalized by the average value of vehicle experiments (DMSO 0.1%) to obtain a DMSO-corrected, delta/delta percent change. Experiments from each condition, as delta/delta percent, were averaged and expressed as mean ± SD. Statistical analysis was performed using a non-parametric test (Kruskal-Wallis) and each treatment condition was compared to the relative DMSO 0.1%. Differences were considered statistically significant when the p-value was smaller than 0.05.

[2] = free therapeutic Cmax in humans; ref FDA-approved drug packages, PharmaPendium; cited from earlier work
[3] = test system: hiPSC-CMs (iCell-Cardiomyocytes^2)
Protocol: as §1, §2, §3
The potential presence of various arrhythmic events was evaluated and noted during the data analysis.
as §4, §5

[4] = all concentrations tested, up to 96 h

In the case of `CC(=O)Oc1ccccc1C(=O)O` [Aspirin], the “Imp (impedance), % change from baseline” value ([1]; 3 µM, 72h) is reported as -2±2%, the “Imp (impedance), % change from baseline” value ([1]; 3 µM, 96h) is reported as -7±3% and the “Imp (impedance), % change from baseline” value ([1]; 3 µM, 2h) is reported as 5±3%. For the same compound, the “Imp (impedance), % change from baseline” value ([1]; 3 µM, 24h) was -9±4%, the “Imp (impedance), % change from baseline” value ([1]; 3 µM, 48h) was -10±2% and the “Imp (impedance), % change from baseline” value ([1]; 10 µM, 2h) was 6±2%. For the same compound, the “Imp (impedance), % change from baseline” value ([1]; 10 µM, 24h) was -8±3%, the “Imp (impedance), % change from baseline” value ([1]; 10 µM, 48h) was -7±3% and the “Imp (impedance), % change from baseline” value ([1]; 10 µM, 72h) was -4±5%. The “Imp (impedance), % change from baseline” value ([1]; 10 µM, 96h) was -6±6%, the “Imp (impedance), % change from baseline” value ([1]; 30 µM, 2h) was 6±4% and the “Imp (impedance), % change from baseline” value ([1]; 30 µM, 24h) was -4±3%. The “Imp (impedance), % change from baseline” value ([1]; 30 µM, 48h) was -8±3%, the “Imp (impedance), % change from baseline” value ([1]; 30 µM, 72h) was -1±2% and the “Imp (impedance), % change from baseline” value ([1]; 30 µM, 96h) was -3±2%. The “Imp (impedance), % change from baseline” value ([1]; 100 µM, 2h) was 8±1%, the “Imp (impedance), % change from baseline” value ([1]; 100 µM, 24h) was -7±4% and the “Imp (impedance), % change from baseline” value ([1]; 100 µM, 48h) was -11±3%. The “Imp (impedance), % change from baseline” value ([1]; 100 µM, 72h) was -2±6%, the “Imp (impedance), % change from baseline” value ([1]; 100 µM, 96h) was -6±7% and the effect on impedance [1, 4] was “did not have a significant effect on impedance”. For the same compound, the “Free Cmax” value [2] was 11.1 µM, the “BR (beating rate), % change from baseline” value (from here on “BR (beating rate), % change”) ([3]; 3 µM, 72h) was -10±2% and the “FPD (field-potential duration), % change from baseline” value (“FPD … % change from baseline” for short) ([3]; 3 µM, 72h) was 16.3±2.2%. The “BR (beating rate), % change” value ([3]; 3 µM, 96h) was -18±1%, the “FPD … % change from baseline” value ([3]; 3 µM, 96h) was 25.2±3.5% and the “BR (beating rate), % change” value ([3]; 3 µM, 2h) was 2±2%. The “FPD … % change from baseline” value ([3]; 3 µM, 2h) was 2.5±1.6%, the “BR (beating rate), % change” value ([3]; 3 µM, 24h) was 1±2% and the “FPD … % change from baseline” value ([3]; 3 µM, 24h) was 6.2±3%. For the same compound, the “BR (beating rate), % change” value ([3]; 3 µM, 48h) was -7±1%, the “FPD … % change from baseline” value ([3]; 3 µM, 48h) was 13.2±2.8% and the “BR (beating rate), % change” value ([3]; 10 µM, 2h) was 3±2%. For the same compound, the “FPD … % change from baseline” value ([3]; 10 µM, 2h) was 4±7.9%, the “BR (beating rate), % change” value ([3]; 10 µM, 24h) was 2±3% and the “FPD … % change from baseline” value ([3]; 10 µM, 24h) was 5.8±4.5%. For the same compound, the “BR (beating rate), % change” value ([3]; 10 µM, 48h) was -8±3%, the “FPD … % change from baseline” value ([3]; 10 µM, 48h) was 12.2±6.3% and the “BR (beating rate), % change” value ([3]; 10 µM, 72h) was -9±2%. The “FPD … % change from baseline” value ([3]; 10 µM, 72h) was 14.6±6.7%, the “BR (beating rate), % change” value ([3]; 10 µM, 96h) was -17±3% and the “FPD … % change from baseline” value ([3]; 10 µM, 96h) was 23.3±7.8%. For the same compound, the “BR (beating rate), % change” value ([3]; 30 µM, 2h) was 3±2%, the “FPD … % change from baseline” value ([3]; 30 µM, 2h) was 0.9±1.8% and the “BR (beating rate), % change” value ([3]; 30 µM, 24h) was 0±4%. The “FPD … % change from baseline” value ([3]; 30 µM, 24h) was 6.7±3.9%, the “BR (beating rate), % change” value ([3]; 30 µM, 48h) was -8±2% and the “FPD … % change from baseline” value ([3]; 30 µM, 48h) was 13.5±5.1%. The “BR (beating rate), % change” value ([3]; 30 µM, 72h) was -9±3%, the “FPD … % change from baseline” value ([3]; 30 µM, 72h) was 15.4±5% and the “BR (beating rate), % change” value ([3]; 30 µM, 96h) was -18±4%. For the same compound, the “FPD … % change from baseline” value ([3]; 30 µM, 96h) was 23.3±4.7%, the “BR (beating rate), % change” value ([3]; 100 µM, 2h) was 2±3% and the “FPD … % change from baseline” value ([3]; 100 µM, 2h) was 0.2±2.9%. The “BR (beating rate), % change” value ([3]; 100 µM, 24h) was -2±3%, the “FPD … % change from baseline” value ([3]; 100 µM, 24h) was 7.2±3.6% and the “BR (beating rate), % change” value ([3]; 100 µM, 48h) was -7±2%. The “FPD … % change from baseline” value ([3]; 100 µM, 48h) was 13.4±3%, the “BR (beating rate), % change” value ([3]; 100 µM, 72h) was -10±3% and the “FPD … % change from baseline” value ([3]; 100 µM, 72h) was 17.6±2%. The “BR (beating rate), % change” value ([3]; 100 µM, 96h) was -16±4%, the “FPD … % change from baseline” value ([3]; 100 µM, 96h) was 23.9±1.7% and the “cessation of beating, flat T-wave or arrhythmic-like events” value [3, 4] was “no cessation of beating, flat T-wave or arrhythmic-like events were detected”.
